Assay results from patent US8198285B2, “Pyrazine derivatives” (Astrazeneca AB, priority 2010, dated 2012).
Structures can show the parent of a compound that is named as a salt.

Tested on: β-catenin accumulation in the nucleus of murine C3H/10T1/2 cells
Test: Cellular beta-catenin stabilisation assay, Test (b)
Assay type: cell-based
Settings: Mus musculus, 24 hours, read-out: EC50 versus cellular β-catenin accumulation in the nucleus of murine C3H/10T1/2 cells
Procedure: This assay uses an imaging based approach to measure the ability of test compounds to promote Beta-catenin stabilisation in the nucleus of C3H10T1/2 cells. Beta-catenin stabilisation is an indicator of GSK3β inhibition.
A C3H10T1/2 mouse clone 8 fibroblast cell line (American Type Culture Collection (ATCC, USA; catalogue number CRL 226) was routinely maintained at 37° C. with 5% CO2 in Basal Medium Eagle (BME, Invitrogen; Paisley, UK; catalogue number 41010) containing 10% (v/v) foetal bovine serum (FBS, Invitrogen, Paisley; UK; catalogue number 10270) and 2 mM L-glutamine (Invitrogen, Paisley, UK; catalogue number 25030024). For the assay, the cells were detached from the culture flask with ‘Accutase’ (Innovative Cell Technologies Inc., San Diego, USA; catalogue number AT104) using standard tissue culture methods and re-suspended in assay media comprising of BME containing 5% (v/v) FBS and 2 mM L-glutamine to give 55,555 cells per ml. Then, 90 μl of this solution was seeded into each well of a clear-bottom 96 well tissue culture plate (Perkin Elmer Viewplate; catalogue number 6005182) using a Multidrop Combi Dispenser (Thermo Fisher Scientific, Loughborough, UK) to give 5,000 cells per well. Plates were incubated overnight at 37° C. with 5% CO2 to allow the cells to adhere to the wells. Test compounds were prepared as 10 mM stock solutions in dimethylsulphoxide (DMSO) (Sigma-Aldrich; Poole, UK, catalogue number 49442-9) and serially diluted in DMSO. A Multidrop Combi was used to dispense 245 μl of pre-warmed assay media into a 96 well plate (Thermo Fisher Scientific, Loughborough, UK; catalogue number 50823925) before 5 μl of serially diluted compound was added to this intermediate plate. After mixing, 10 μl of each compound concentration was added to the cell plates. The total dilution factor from DMSO stock was 500 times. Control cells received either DMSO (0.2% v/v final concentration) or 10 μM positive control compound. The cells were incubated for 24 hours at 37° C. with 5% CO2.
After compound treatment the cells were fixed by the addition of 100 μl of 8% w/v paraformaldehyde (Sigma-Aldrich, Poole, UK; catalogue number P6148), directly into the assay plate wells. The cells were incubated at ambient temperature with fixative for 30 minutes before washing 3 times with 100 μl phosphate-buffered saline (PBS, Sigma-Aldrich; catalogue number D8537). […] The cells were then washed 3 times in 100 μl of PBS before the plates were sealed ready for image capture. Fluorescent images were captured and quantified using the Incell Analyser 3000 (GE Healthcare, USA). […]

## COCCCNCCCc1ccc(-c2cnc(N)c(C(=O)Nc3cccnc3)n2)cc1 [Example 1, 3-Amino-6-(4-{3-[(3-methoxypropyl)amino]propyl}phenyl)-N-pyridin-3-ylpyrazine-2-carboxamide tri-hydrochloride]
  EC50: ~242 nM
